Results as given in patent US20230165965A1, “NEW COUMARIN-POLYMER CONJUGATES AND USES THEREOF” (Onyel Biotech S.r.l., priority 2020, published 2023).
Where two headings read alike, the source gives them in different places. Blank lines part the entries; values can stand above or below the compound they belong to.

Columns and labels:
[1] = Atomic force measurement (AFM) of hydrogel Young's modulus; assay type: physicochemical; conditions: 1-photon UV mediated cycloaddition
Protocol: With the aim to provide glass surface HCCA-groups for covalent bonding HCC-branched polymers solutions were drop-cast onto glass coverslip previously functionalized with HCCA- as described in Section 10. HCC-4arm PEG and HCC-8arm PEG were dissolved in PBS (300 mg/mL) at room temperature under agitation. HCC-Gel was dissolved in PBS (100 mg/mL) under agitation at 60° C. for 10 min. When coverslips were used, a second coverslip was placed on top of the drop of HCC-polymeric solutions to limit water evaporation during the irradiation process. […] Laser power is measured before objective back aperture, corresponding to about 1% of the power on the sample plane. […]
For crosslinking reaction analysis, 5 μL CMMC-4 arm PEG (300 mg/mL) or CMMC-Gel (100 mg/mL) solution was located in a humid chamber at 3 cm from a 365 nm UV LED Gen 2 Emitter LZ4-04UV00 (Led Engin) and irradiated for different minutes as reported. When CMMC-Gel solution was analysed at different concentrations (100 mg/mL, 120 mg/mL, 140 mg/mL, 160 mg/mL, 180 mg/mL and 200 mg/mL), 5 μL of solution was located in a humid chamber at 3 cm from a 365 nm UV LED Gen 2 Emitter LZ4-04UV00 (Led Engin) and irradiated for 3 minutes. […]
The Young's modulus was calculated applying a fit of the Hertz model to the force curve, assuming a Poisson ratio of 0.5. […]

mCherry+FBs = conditions: for organization of donor mCherry+FBs: under epimysium, 21 days
Protocol: (§1) Mice were anaesthetized using i.p. injection of Zoletil® 50/50 (40 mg/kg) and Rompun® 2% Xilazina (5 mg/kg) in physiologic solution. Induction of deep surgical anaesthesia was confirmed by absence of reaction to hind foot pinch. The surgical procedure underwent in aseptic conditions (skin preparation, sterilized instruments, gloves and drapes). […] For blood flow analysis, Rhodamine B isothiocyanate-Dextran (Sigma, R9379) was injected in tail vein at 50 mg/mL in physiologic solution. When required, skin wound was closed with Vicryl 6-0 suture and no movement or space restriction were applied to animals after treatments. At the required time point, animals were deeply anesthetized, subjected to stereomicroscope and/or 2P intravital imaging, then sacrificed for tissues collection.

skeletal muscle = conditions: GFP+MuSC/mCherry+FB-laden, i3D bioprinted
Protocol: as §1
ImageJ software were used for adjustments of levels and contrast, maximum and standard deviation intensity projections, 3D reconstructions and thresholding to create binary mask used for directionality and ferret angle measurements. To quantify the directionality of i3D bioprinted cells, at least 9 fluorescence images of independent biological triplicates for each sample were converted in binary masks, then analyzed with directionality plugin of ImageJ software (that indicates the amount of structures in a given direction). […]

[2] = test system: Murine muscle-derived stem cells (MuSC)
Protocol: Cells were expanded for 1 passage at 37° C. in cell incubator, using proliferating medium composed by DMEM supplemented with 20% horse serum, 10% fetal bovine serum (Gibco), 1% chicken embryo extract (Sera Laboratories International), bFGF ([…], Invitrogen #PHG0264) and 1% Pen/Strep (Thermofisher). […] Samples were cultured in proliferating media and analyzed 2 days after 3D bioprinting (cell directionality was quantified as reported above). […] After 5 days of culture in proliferating medium, differentiation medium (DMEM supplemented with 2% horse serum and 1% Pen/Strep) was used for the following 5 days of cell culture. After 10 days, samples were fixed in 4% (w/v) paraformaldehyde (PFA, Sigma-Aldrich) in PBS for 7 min at room temperature and maintained at 4° C. in PBS until use.
(§2) ImageJ software were used for adjustments of levels and contrast, maximum and standard deviation intensity projections, 3D reconstructions and thresholding to create binary mask used for directionality and ferret angle measurements. To quantify the directionality of i3D bioprinted cells, at least 9 fluorescence images of independent biological triplicates for each sample were converted in binary masks, then analyzed with directionality plugin of ImageJ software (that indicates the amount of structures in a given direction). To quantify the shape of enclosed hSIOs, at least 9 fluorescence images of independent biological triplicates for each sample were converted in binary masks, then analyzed with measure plugin of ImageJ software to quantify the Feret's angle (the angle between the longest distance of the axis of any two points along the selection boundary (Feret's diameter) and a line parallel to the x-axis of the image).

[3] = test system: human small intestinal organoids (hSIOs); assay type: cell-based; conditions: open square-box hydrogel, up to 8 days of culture
Text: as §2

HUVEC cells = conditions: seeded on hydrogels
Protocol: HUVEC were transduced with a lentiviral vector encoding for eGFP (3) and cultured in Endothelial Growth Media (EGM, Lonza). […] After culture, cells were fixed in 4% (w/v) paraformaldehyde (PFA, Sigma-Aldrich) in PBS for 7 min at room temperature and maintained at 4° C. in PBS until use. […] After culture, cells were fixed in 4% (w/v) paraformaldehyde (PFA, Sigma-Aldrich) in PBS for 7 min at room temperature and maintained at 4° C. in PBS until use.

Fibroblasts (FBs) = conditions: ΔZ up to 150 μm, interspace down to 10 μm
Protocol: For 3D cell laden culture, 10^4 cells were seeded into Matrigel, or Matrigel or CMMC-Gel exposed to UV light for 3 minutes at an irradiation distance of 3 millimeters, located in a 24 multiwell culture dish, cultured for 2 days at 37° C. and 5% CO2 in cell incubator before performing cell viability assay as described above. […] 2P-cell laden constructs were analyzed by imaging or AFM as described above.

[4] = Single-photon absorption spectra analysis of coumarin derivatives; assay type: physicochemical
Protocol: Table 1, below, reports the absorbance spectra analysis of selected coumarin derivatives dissolved in PBS at pH 7.4, the maximum single photon absorption wavelengths in specific solvents are indicated.
Selected coumarin derivatives were dissolved in DMSO at a concentration of 5 mg/ml and diluted 1:500 in PBS, pH 7.4. The absorption spectra were recorded on an Evolution 201 UV-Vis spectrophotometer (Thermo Fisher Scientific, Waltham, Mass., USA) in the wavelength range of 250-450 nm.

Compound: 7-(carboxymethoxy)-4-methylcoumarin-gelatin [CMMC-Gel]
elastic modulus with increasing irradiation time [1]: increases to asymptotic values

Compound: 7-hydroxycoumarin-3-carboxamide-gelatin [HCC-Gel]
localization of donor mCherry+FBs (mCherry+FBs; intra-dermal injection and i3D bioprinting across epidermis, 14 days): Elongated localization | organization of donor mCherry+FBs (mCherry+FBs; i3D bioprinted parallelepiped-shaped constructs): elongated clusters | organization of donor mCherry+FBs (mCherry+FBs; injected only (no i3D bioprinting)): rounded clusters | de novo skeletal muscle tissue formation (skeletal muscle; 7 days): supports de novo skeletal muscle tissue formation | organization of donor GFP cells (skeletal muscle; one week): confined bundle of elongated GFP cells | cell directionality of MuSC ([2]; cuboid-shaped structures): randomly oriented | cell directionality of MuSC ([2]; elongated-shaped structures): oriented along major axis of the 3D structures | myotube formation ([2]; parallelepiped-shaped structures, 10 days of culture): support the formation of aligned multinucleated myotubes | columnar epithelium of enclosed hSIOs [3]: well-developed columnar epithelium | adhesion and culture of HUVEC cells (HUVEC cells): supported adhesion and culture | adhesion of GFP FBs to parallelepiped-shaped hydrogels (Fibroblasts (FBs)): efficiently adhere

Abs λ ([4]; Solvent: Methanol): 340 nm
Compound: Cc1c(CC(=O)O)c(=O)oc2cc(N)ccc12 [7-Amino-4-methyl-3-coumarinylacetic acid]

Abs λ ([4]; Solvent: Ethanol): 321 nm
Compound: Cc1cc(=O)oc2cc(OCC(=O)O)ccc12 [7-Carboxymethoxy-4-methylcoumarin]

Abs λ ([4]; Solvent: Ethanol): 383 nm
Compound: O=c1cc(C(F)(F)F)c2ccc(O)cc2o1 [7-Hydroxy-4-(trifluoromethyl)coumarin]

Abs λ ([4]; Solvent: 95% Ethanol): 322 nm
Compound: Cc1cc(=O)oc2cc(O)ccc12 [7-Hydroxy-4-methylcoumarin]

Abs λ ([4]; solvent not given): 413 nm
Compound: O=C(ON1C(=O)CCC1=O)c1cc2ccc(O)cc2oc1=O [7-Hydroxycoumarin-3-carboxylic acid N-succinimidyl ester]

Abs λ ([4]; Solvent: 95% Ethanol): 325 nm
Compound: O=c1ccc2ccc(O)cc2o1 [7-Hydroxycoumarin]

Abs λ ([4]; Solvent: Ethanol): 403 nm
Compound: CCOC(=O)c1cc2ccc(O)cc2oc1=O [Ethyl 7-Hydroxycoumarin-3-carboxylate]
